# Laboratory results published in patent US20220386611A1, “NOVEL HETEROARYL-TRIAZOLE COMPOUNDS AS PESTICIDES” (Bayer Aktiengesellschaft, priority 2019, published 2022).
# Columns and labels:
# Assay type in all cases: in vivo
# [1] = tested on: Blattella germanica strain PAULINIA; experiment: Blattella germanica test (BLTTGE surface treatment & contact assay); settings: surface concentration 20 mg/m^2, 30 minutes exposure, 24 hours after contact, read-out: efficacy (mortality)
# Procedure: Blattella germanica Test (BLTTGE Surface Treatment & Contact Assay)
# (§1) Solvent: Aceton+2000 ppm rapeseed oil methyl ester (RME)
# (§2) In order to produce a sufficient, active ingredient containing solution it is necessary to solve the test compound in the solvent-mix (acetone at 2 mg/ml/RME 2000 ppm). This solution is pipetted onto a glazed tile and after evaporation of the acetone, adult animals of the species Blattella germanica strain PAULINIA are placed onto the dried surface. The exposure time is 30 minutes. Mortality in percent (%) is determined 24 hours after contact of the insects to the treated surface. 100% mortality means that all tested insects are dead, whereas 0% means that no insect died.
# [2] = tested on: adult engorged female ticks (Rhipicephalus microplus); experiment: Rhipicephalus (Boophilus) microplus injection test; settings: 168 h, after 7 days, read-out: efficacy (infertile eggs); for pest or weed control at 0.004 mg: 4 μg/animal
# Summary of the method: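 Compound in DMSO (10 mg per 0.5 mL, then diluted with DMSO to test concentration); 1 μL injected into the abdomen of each of five engorged females, then held in a climate chamber. Fertile egg deposition checked at 7 days; efficacy 100% = all eggs infertile, 0% = all fertile.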
# [3] = tested on: cattle ticks (Rhipicephalus microplus) strain Parkhurst, SP-resistant; experiment: Rhipicephalus (Boophilus) microplus dip test; settings: 100 ppm, after 7 days
# Procedure: Rhipicephalus (Boophilus) microplus—Dip Test
# Test animal: cattle ticks (Rhipicephalus microplus) strain Parkhurst, SP-resistant
# Solvent: dimethyl sulfoxide
# To produce a suitable preparation of active compound, 10 mg of active compound are dissolved in 0.5 mL solvent, and the concentrate is diluted with water to the desired concentration.
# This compound solution is pipetted into tubes. 8-10 engorged, adult, female cattle ticks (Rhipicephalus microplus) are placed in perforated tubes. These tubes are immersed in the aqueous compound solution until the ticks are completely moistened. After the liquid has drained off, the ticks are transferred to a filter paper in a plastic tray and stored in a climate chamber.
# After 7 days egg deposition of fertile eggs is monitored. Eggs where fertility is not visible are stored in a climate chamber till hatching after about 42 days. An efficacy of 100% means all eggs are infertile; 0% means all eggs are fertile.
# [4] = tested on: Musca domestica strain WHO-N; experiment: Musca domestica test (MUSCDO surface treatment & contact assay); settings: 24 hours after contact, read-out: efficacy (mortality); for mortality at 20 mg/m2: surface concentration 20 mg/m^2, 30 minutes exposure
# Procedure: Musca domestica Test (MUSCDO Surface Treatment & Contact Assay)
# as §1
# as §2, with “flies” for “animals”, “Musca domestica” for “Blattella germanica”, “WHO-N” for “PAULINIA”
# [5] = tested on: fall armyworm larvae (Spodoptera frugiperda); experiment: Spodoptera frugiperda spray test; settings: in Zea mays, 168 h
# Procedure: Spodoptera frukiperda—Spray Test
# Solvent: 78.0 parts by weight acetone • 1.5 parts by weight dimethylformamide
# Emulsifier: alkylarylpolyglycol ether
# To produce a suitable preparation of active compound, 1 part by weight of active compound is mixed with the stated amount of solvents and is diluted with water, containing an emulsifier concentration of 1000 ppm, to the desired concentration. Further test concentrations are prepared by dilution with emulsifier containing water.
# Maize (Zea mays) leaf sections are sprayed with a preparation of the active ingredient of the desired concentration. Once dry, the leaf sections are infested with fall armyworm larvae (Spodoptera frugiperda).
# After 7 days mortality in % is determined. 100% means all caterpillars have been killed and 0% means none of the caterpillars have been killed.
# [6] = tested on: green peach aphid (Myzus persicae); experiment: Myzus persicae spray test; settings: foliar, 120 h, after 5 days, Chinese cabbage leaf disks
# Summary of the method: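 Chinese cabbage leaf disks infested with all instars of Myzus persicae were sprayed with compound formulated in acetone/dimethylformamide and diluted in water containing 1000 ppm emulsifier. Percent mortality was scored after 5 days.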
Structure (SMILES),mortality at 20 mg/m2 [1],pest or weed control at 0.004 mg [2],pest or weed control at 0.02 mg ([2]; 20 μg/animal),efficacy (infertile eggs) [3],mortality at 20 mg/m2 [4],mortality at 100 g/ha [5],mortality at 100 g/ha [6],"mortality at 4 mg/m2 ([4]; surface concentration 4 mg/m^2, 30 minutes exposure)"
CC(NC(=O)c1cc(C(F)(F)F)cc(C(F)(F)F)c1)c1nc(Cl)nn1-c1ncccn1 (stereo not drawn) [Example I-002],80 to 100%,100%,100%,80%,80 to 100%,100%,–,–
CC(NC(=O)c1cc(C(F)(F)F)cc(C(F)(F)F)c1)c1nc(Br)nn1-c1ncccn1 (stereo not drawn) [Example I-010],–,100%,–,–,80 to 100%,100%,90%,–
CC(NC(=O)c1cc(C(F)(F)F)cc(C(F)(F)F)c1)c1nc(I)nn1-c1ncccn1 (stereo not drawn) [Example I-021],80 to 100%,–,–,–,80 to 100%,100%,90%,80 to 100%
